For assay [1], the target named is T1, PDE1 (Bos taurus, UniProt P14100).
T1 construct: PDE1 partially purified from bovine heart was used; from tissue; host or cells: bovine heart
In words: PDE1 enzyme inhibition assay. The class given is biochemical, bovine. To be noted: 1% DMSO vehicle. An excerpt: In this example, a racemic mixture of monochloroflosequinan and the sulfone derivative of monochloroflosequinan were independently subjected to biochemical enzyme assays to determine their respective percent inhibition of a variety of phosphodiesterases (PDE1-PDE6). The methods used have been adapted from those described in the scientific literature, see Hidaka and Asano “Human blood platelet 3′:5′ cyclic nucleotide phosphodiesterase. Isolation of low-Km and high Km phosphodiesterase.” Biochem. Biophys. Acta 429:485 (1976); Nicholoson et al. “Differential modulation of tissue function and therapeutic potential of selective inhibitors of cyclic nucleotide phosphodiesterase isoenzymes” Trends Pharmacol. Sci. 12:19 (1991); Cortijo et al. “Investigation into the role of phosphodiesterase IV in bronchorelaxation, including studies with hyman bronchus.” Br. J. Pharmacol. 108:562 (1993); Baehr et al. “Isolation and characterization of cGMP phosphodiesterase from bovine rod outer segments.” J. Biol. Chem. 254:11669 (1979) and Gillespie and Beavo “Inhibition and stimulation of photoreceptor phosphodiesterase by dipyridamole and M&B 22,948” Molecular Pharm. 36:773 (1989). A brief summary of the conditions for each enzyme assay is provided below: • PDE1: PDE1 partially purified from bovine heart was used. The compounds were independently incubated with 13 μg PDE1 enzyme, 1.01 μM [^3H]cAMP+cAMP and CaCl2/calmodulin in Tris buffer pH 7.5 for 20 minutes at either 25° C. or 30° C. The reaction was terminated by boiling for 2 minutes, and the resulting AMP was converted to adenosine by addition of 10 mg/ml snake venom nucleotidase and further incubation at 30° C. for 10 minutes. Unhydrolyzed cAMP was bound to AGI-X2 resin, and the remaining [^3H]adenosine in the aqueous phase was quantitated by scintillation counting. • PDE2: PDE2 partially purified from human platelets was used. The compounds were independently incubated with 23 μg PDE2 enzyme, 25.1 μM [^3H]cAMP+cAMP in Tris buffer pH 7.5 for 20 minutes at either 25° C. or 30° C. The reaction was terminated by boiling for 2 minutes, and the resulting AMP was converted to adenosine by addition of 10 mg/ml snake venom nucleotidase and further incubation at 30° C. for 10 minutes. Unhydrolyzed cAMP was bound to AGI-X2 resin, and the remaining [^3H]adenosine in the aqueous phase was quantitated by scintillation counting. • PDE3: PDE3 partially purified from human platelets was used. The compounds were independently incubated with 13 ug PDE3 enzyme and 1.01 μM [^3H]cAMP+cAMP in Tris buffer pH 7.5 for 20 minutes at either 25° C. or 30° C. The reaction was terminated by boiling for 2 minutes, and the resulting AMP was converted to adenosine by addition of 10 mg/ml snake venom nucleotidase and further incubation at 30° C. for 10 minutes. Unhydrolyzed cAMP was bound to AGI-X2 resin, and the remaining [^3H]adenosine in the aqueous phase was quantitated by scintillation counting. • PDE4: PDE4 partially purified from human U-937 pronocytic cells was used. The compounds were independently incubated with 20 μg PDE4 enzyme and 1.01 μM [^3H]cAMP+cAMP in Tris buffer pH 7.5 for 20 minutes at either 25° C. or 30° C. […] Unhydrolyzed cAMP was bound to AGI-X2 resin, and the remaining [^3H]adenosine in the aqueous phase was quantitated by scintillation counting. • PDE5: PDE5 partially purified from human platelets was used. […]

For assay [2], the target named is T2, PDE3 (Homo sapiens, UniProt Q14432).
T2 construct: PDE3 partially purified from human platelets was used; from tissue; host or cells: human platelets
The assay is described as follows: PDE3 enzyme inhibition assay. The class given is biochemical. As to conditions: 1% DMSO vehicle. An excerpt: In this example, a racemic mixture of monochloroflosequinan and the sulfone derivative of monochloroflosequinan were independently subjected to biochemical enzyme assays to determine their respective percent inhibition of a variety of phosphodiesterases (PDE1-PDE6). The methods used have been adapted from those described in the scientific literature, see Hidaka and Asano “Human blood platelet 3′:5′ cyclic nucleotide phosphodiesterase. Isolation of low-Km and high Km phosphodiesterase.” Biochem. Biophys. Acta 429:485 (1976); Nicholoson et al. “Differential modulation of tissue function and therapeutic potential of selective inhibitors of cyclic nucleotide phosphodiesterase isoenzymes” Trends Pharmacol. Sci. 12:19 (1991); Cortijo et al. “Investigation into the role of phosphodiesterase IV in bronchorelaxation, including studies with hyman bronchus.” Br. J. Pharmacol. 108:562 (1993); Baehr et al. “Isolation and characterization of cGMP phosphodiesterase from bovine rod outer segments.” J. Biol. Chem. 254:11669 (1979) and Gillespie and Beavo “Inhibition and stimulation of photoreceptor phosphodiesterase by dipyridamole and M&B 22,948” Molecular Pharm. 36:773 (1989). A brief summary of the conditions for each enzyme assay is provided below: • PDE1: PDE1 partially purified from bovine heart was used. The compounds were independently incubated with 13 μg PDE1 enzyme, 1.01 μM [^3H]cAMP+cAMP and CaCl2/calmodulin in Tris buffer pH 7.5 for 20 minutes at either 25° C. or 30° C. The reaction was terminated by boiling for 2 minutes, and the resulting AMP was converted to adenosine by addition of 10 mg/ml snake venom nucleotidase and further incubation at 30° C. for 10 minutes. Unhydrolyzed cAMP was bound to AGI-X2 resin, and the remaining [^3H]adenosine in the aqueous phase was quantitated by scintillation counting. • PDE2: PDE2 partially purified from human platelets was used. The compounds were independently incubated with 23 μg PDE2 enzyme, 25.1 μM [^3H]cAMP+cAMP in Tris buffer pH 7.5 for 20 minutes at either 25° C. or 30° C. […] Unhydrolyzed cAMP was bound to AGI-X2 resin, and the remaining [^3H]adenosine in the aqueous phase was quantitated by scintillation counting. • PDE3: PDE3 partially purified from human platelets was used. […] Unhydrolyzed cAMP was bound to AGI-X2 resin, and the remaining [^3H]adenosine in the aqueous phase was quantitated by scintillation counting. • PDE4: PDE4 partially purified from human U-937 pronocytic cells was used. […] Unhydrolyzed cAMP was bound to AGI-X2 resin, and the remaining [^3H]adenosine in the aqueous phase was quantitated by scintillation counting. • PDE5: PDE5 partially purified from human platelets was used. […]

T2 sequence (Q14432 whole entry): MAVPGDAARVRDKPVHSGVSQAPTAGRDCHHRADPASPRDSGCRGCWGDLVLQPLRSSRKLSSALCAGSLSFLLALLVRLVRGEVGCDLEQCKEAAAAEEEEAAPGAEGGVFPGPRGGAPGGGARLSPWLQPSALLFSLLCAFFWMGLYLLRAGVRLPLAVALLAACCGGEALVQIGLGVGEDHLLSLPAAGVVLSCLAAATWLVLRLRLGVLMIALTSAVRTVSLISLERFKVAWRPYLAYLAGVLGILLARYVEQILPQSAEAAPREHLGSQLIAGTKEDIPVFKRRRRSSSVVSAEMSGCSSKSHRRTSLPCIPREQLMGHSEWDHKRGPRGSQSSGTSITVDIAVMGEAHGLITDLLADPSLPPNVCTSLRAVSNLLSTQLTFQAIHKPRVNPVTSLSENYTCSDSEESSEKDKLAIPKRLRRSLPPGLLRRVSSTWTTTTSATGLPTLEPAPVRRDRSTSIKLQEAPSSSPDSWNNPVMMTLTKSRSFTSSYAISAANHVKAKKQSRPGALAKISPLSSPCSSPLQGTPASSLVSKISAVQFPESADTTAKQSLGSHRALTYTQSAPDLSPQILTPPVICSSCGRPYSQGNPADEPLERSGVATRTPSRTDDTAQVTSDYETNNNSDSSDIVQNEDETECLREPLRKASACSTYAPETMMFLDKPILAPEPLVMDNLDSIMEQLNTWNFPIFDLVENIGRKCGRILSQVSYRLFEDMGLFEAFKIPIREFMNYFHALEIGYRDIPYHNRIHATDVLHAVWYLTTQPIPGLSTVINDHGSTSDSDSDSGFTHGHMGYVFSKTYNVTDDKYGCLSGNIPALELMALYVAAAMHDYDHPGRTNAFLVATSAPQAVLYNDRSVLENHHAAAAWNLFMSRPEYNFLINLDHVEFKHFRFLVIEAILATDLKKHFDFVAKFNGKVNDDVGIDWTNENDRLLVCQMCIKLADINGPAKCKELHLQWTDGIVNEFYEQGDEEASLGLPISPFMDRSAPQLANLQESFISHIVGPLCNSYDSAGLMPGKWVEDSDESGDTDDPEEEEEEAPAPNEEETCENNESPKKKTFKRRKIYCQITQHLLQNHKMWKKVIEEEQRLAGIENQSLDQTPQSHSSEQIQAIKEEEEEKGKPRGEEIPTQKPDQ

Consider `Cn1cc([S+]([O-])CCl)c(=O)c2ccc(F)cc21` (racemic) [monochloroflosequinan, 3-chloromethylsulfinyl-7-fluoro-1-methyl-4-quinolone], for which the “inhibition of PDE1” value in assay [1] (100 uM, 30° C.) was “Significant inhibition”. In addition, the “inhibition of PDE3” value in assay [2] (100 uM, 30° C.) is listed as “Significant inhibition”.
With `Cn1cc([S@+]([O-])CCl)c(=O)c2ccc(F)cc21` (single isomer, unassigned) [(+)-enantiomer of monochloroflosequinan], the “inhibition of PDE1” value in assay [1] (200 μM, 25° C.) is recorded as “greater than 50%”. Further, in assay [2] (200 μM, 25° C.), the “inhibition of PDE3” value is recorded as “greater than 50%”.
In the case of `Cn1cc([S@@+]([O-])CCl)c(=O)c2ccc(F)cc21` (single isomer, unassigned) [(−)-enantiomer of monochloroflosequinan], the “inhibition of PDE1” value in assay [1] (200 μM, 25° C.) is reported as “greater than 50%”. Also, the “inhibition of PDE3” value in assay [2] (200 μM, 25° C.) is recorded as “greater than 50%”.
Take `Cn1cc([S+]([O-])C(Cl)Cl)c(=O)c2ccc(F)cc21` (centres unmarked) [dichloroflosequinan, 3-dichloromethylsulfinyl-7-fluoro-1-methyl-4-quinolone]: in assay [1] (varying concentrations, 25° C.), the “inhibition of PDE1” value is “greater than 50%”. The “inhibition of PDE3” value in assay [2] (varying concentrations, 25° C.) is “greater than 50%”.

The values are drawn from patent US7041677B2, “Use of monochloroflosequinan in the treatment of sexual dysfunction” (R.T. Alamo Ventures I, LLC, priority 2002, dated 2006).
